Reference: patent publication US20060134801A1, “Methods and compositions involving MDA-7” (Board of Regents, The University of Texas System, priority 2003, published 2006)

Assays:
A549 cells = assay: Radiation clonogenic survival assay; type: cell-based, human; settings: A549 and H1299
Protocol: In vitro transfection studies for all cell lines were performed by plating 2×10^5 cells in T25 flasks. Forty-eight hours after plating, cells were incubated for 1 hour with purified vector in 1 ml of medium without serum. After 1 hour, fresh medium supplemented with 10% FBS was added to the flask. Serum-free medium was used for mock transfection.
The effectiveness of treatments was assessed by clonogenic assays. Briefly, monolayers of A549, H1299, CCD-16, and MRC-9 cells were treated in T25 flasks as described above, and after various doses of irradiation the cells were trypsinized and counted. Known numbers of cells were then replated in 100 mm culture dishes and returned to the incubator to allow macroscopic colony development.

HUVEC = assay: Endothelial cell differentiation (tube formation) assay on Matrigel; type: cell-based, human; settings: for concentration required to significantly inhibit HUVEC tube formation: equimolar comparison; for tube formation in the presence of IL-22R1 antibody: high concentrations, vs PBS
Protocol: Endothelial cell differentiation (tube formation) assays were done using the in vitro angiogenesis assay kit (Chemicon, Temecula, Calif.). Briefly, HUVEC and HMVEC were grown to 80% confluency, collected, resuspended in growth medium, and plated at a concentration of 2−10^4 cells/well in a 96-well plate coated with Matrigel (Chemicon, Temecula, Calif.). Cells were treated with sMDA-7 protein (1, 5, 10, and 50 ng/ml), or a preparation immunodepleted of sMDA protein for 24 h at 37° C. Cells treated with PBS served as negative controls in these experiments. The ability of sMDA-7 to inhibit tube formation was determined and quantitated by counting the number of tubes under bright-field microscopy.
For experiments involving comparative studies, cells were treated with equimolar concentrations of sMDA-7 (5, 10, and 300 ng/ml), recombinant human endostatin (5.2, 10.4, and 315 ng/ml; Calbiochem, La Jolla, Calif.), recombinant IFN-γ (4.5, 9, and 268 ng/ml; R&D systems, Minneapolis, Minn.) or recombinant IP-10 (2.4, 4.5, and 134 ng/ml; R&D systems, Minneapolis, Minn.) and analyzed for tube formation assay as described above. All samples were tested in duplicate. Experiments were repeated at least 5-6 times.
For receptor blocking studies, HUVEC grown in six-well plates were pretreated with IL-22R1 blocking antibody (1 ng/ml and 5 ng/ml). Following overnight incubation, cells were harvested, washed, and plated in Matrigel coated 96-well plates. Fresh IL-22R1 blocking antibody and sMDA-7 was added to the wells in a 1:1 ratio (1 ng/ml of IL-22R1 antibody:1 ng/ml of sMDA-7) or 1:5 ratio (1 ng/ml of IL-22R1 antibody:5 ng/ml of sMDA-7) and incubated at 37° C. After overnight incubation, the plates were examined for tube formation. All other experimental procedures were the same as described above. […] The relative amount of IL-22R1 used for experiments involving endostatin was 315 ng/ml (1:1 ratio) and 134 ng/ml for experiments involving IP-10 (1:1 ratio). All other experimental procedures were the same as described previously. For blocking studies using anti-IP-10 or anti-IFN-γ neutralizing antibodies (R & D Systems), experiments were conducted as described above for receptor studies except that HUVEC were treated with the appropriate neutralizing antibody (1 μg and 5 μg/ml) prior to treatment with sMDA-7 (300 ng/ml).

MDA-7 expression in PBMC = MDA-7 expression in PBMC (real time RT-PCR, intracellular FACS); type: cell-based, human; settings: 100 U/ml; 6 hr; resting PBMC
Protocol: Cells were isolated at the designated times and protein levels measured and RNA isolated. Real time RT-PCR was performed using TaqMan OneStep procedure according to the manufacturers protocol (Applied Biosystems, Foster City Calif.). Gene specific primer/probes for MDA-7 and HPRT were purchased from Applied Biosystems. The reactions were carried out according to manufacturer's protocol using an ABI Prism 7900 HT sequence detection system and the analysis was conducted using Sequence Detection Software version 2.9. MDA-7 protein was detected by intracellular FACs analysis. Cells were treated with Brefeldin A at 10 μg/ml 4 hr prior to harvest to prohibit secretion of the cytokine. Where applicable cells were first surface stained using directly conjugated antibodies and then, to detect intracellular proteins, cells were fixed by treatment with 4% paraformaldehyde and then permeabilized with detergent, n-octyl glucopyranoside at 7 mg/ml. As the control for permeabilization, cells were also stained with a monoclonal antibody directed against the intracellular protein vimentin. Standard protocols were followed for immunofluorescence staining. Immunofluorescence was analyzed on a FACSCalibur with Cell Quest software (BD Immunosciences).
To determine what cytokines may be driving this expression, PBMC were stimulated with IL-2, a major cytokine produced during PHA activation. […]

HUVECs = assay: Clonogenic survival of endothelial cells after irradiation; type: cell-based, human; settings: MDA-7 protein 10 ng/ml; angiostatin, endostatin 100 ng/ml; 12 h before irradiation
Protocol: Twelve hours after seeding HUVECs in 4-well plates (Nunc, Roskilde, Denmark), medium was replaced with serum/growth factor-free medium. After serum/growth factor starvation for 12 hours, cells were treated with complete medium containing either MDA-7 protein (10 ng/ml) (removed from cultures of 293 cells), angiostatin (100 ng/ml), or endostatin (100 ng/ml). Twelve hours later, cells were irradiated with ^137CS unit (3.4 Gy/min) at room temperature, trypsinized and counted. Known numbers of cells were replated in 60 mm culture dishes and incubated to allow macroscopic colony development. Colonies were counted after 14 days, and the percent plating efficiency and surviving fractions following given treatments were calculated based on the survival of non-irradiated cells.

IL-22R1 on HUVEC = biological target: T1, IL-22R1 on HUVEC (human, UniProt Q8N6P7 16-574); assay: cell-based or functional assay
T1 sequence (looked up): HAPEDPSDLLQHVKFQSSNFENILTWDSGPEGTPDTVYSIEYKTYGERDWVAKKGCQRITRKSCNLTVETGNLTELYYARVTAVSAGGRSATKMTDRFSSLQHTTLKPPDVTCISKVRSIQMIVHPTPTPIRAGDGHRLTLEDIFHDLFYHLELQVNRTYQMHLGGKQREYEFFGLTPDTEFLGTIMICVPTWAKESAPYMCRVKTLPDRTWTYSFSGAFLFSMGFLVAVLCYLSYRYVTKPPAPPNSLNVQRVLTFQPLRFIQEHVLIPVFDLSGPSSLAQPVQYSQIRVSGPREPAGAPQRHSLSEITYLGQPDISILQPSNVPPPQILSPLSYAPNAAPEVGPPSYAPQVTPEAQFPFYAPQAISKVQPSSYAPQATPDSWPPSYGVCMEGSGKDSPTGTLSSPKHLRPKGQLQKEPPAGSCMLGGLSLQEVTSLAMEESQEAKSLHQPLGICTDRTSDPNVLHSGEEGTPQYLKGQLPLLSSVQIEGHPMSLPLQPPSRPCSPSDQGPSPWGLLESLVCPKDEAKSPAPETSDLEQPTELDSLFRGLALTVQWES

Molecule: COC(=O)Nc1nc2ccc(C(=O)c3cccs3)cc2[nH]1 [Nocodazole]
- radiosensitivity after G2/M arrest (A549 cells; 200 ng/ml): does not enhance the radiosensitivity

Molecule: COc1cc(/C=C/C(=O)CC(=O)/C=C/c2ccc(O)c(OC)c2)ccc1O [curcumin, Curcumin]
- Ad-mda7 radiosensitization (A549 cells; 10 μM): abrogated

Molecule: IFN-γ: recombinant IFN-γ (R&D systems)
- concentration required to significantly inhibit HUVEC tube formation (HUVEC): 268 ng/mL

Molecule: IL-15: cytokine
- expression of MDA-7 mRNA and protein (MDA-7 expression in PBMC): stimulated

Molecule: IP-10: recombinant IP-10 (R&D systems)
- concentration required to significantly inhibit HUVEC tube formation (HUVEC): 134 ng/mL
- tube formation in the presence of IL-22R1 antibody (HUVEC): significantly inhibited

Molecule: angiostatin
- radiosensitization of HUVECs (HUVECs): produced radiosensitizing effects

Molecule: endostatin
- inhibition of tube formation over control (HUVEC; 315 ng/ml): 40-50%
- concentration required to significantly inhibit HUVEC tube formation (HUVEC): 300 ng/mL
- tube formation in the presence of IL-22R1 antibody (HUVEC): significantly inhibited
- radiosensitization of HUVECs (HUVECs): produced radiosensitizing effects

B1: secreted MDA-7 protein (soluble, glycosylated, produced by stably transfected 293 cells) (ligand)
chain: AQGQEFHFGPCQVKGVVPQKLWEAFWAVKDTMQAQDNITSARLLQQEVLQNVSDAESCYLVHTLLEFYLKTVFKNYHNRTVEVRTLKSFSTLANNFVLIVSQLQPSQENEMFSIRDSAHRRFLLFRRAFKQLDVEAALTKALGEVDILLTWMQKFYKL
modifications: glycosylated (sites not given)
- HUVEC tube formation with sMDA-7 (5 ng/ml), restoration by 1 ng/ml IL-22R1 blocking antibody (1:5 ratio) (IL-22R1 on HUVEC): < 60%
- HUVEC tube formation with sMDA-7 (5 ng/ml), restoration by 5 ng/ml IL-22R1 blocking antibody (1:1 ratio) (IL-22R1 on HUVEC): > 90%

B2: IL-7: cytokine (protein, UniProt P13232 26-177, looked up)
Interleukin-7: DCDIEGKDGKQYESVLMVSIDQLLDSMKEIGSNCLNNEFNFFKRHICDANKEGMFLFRAARKLRQFLKMNSTGDFDLHLLKVSEGTTILLNCTGQVKGRKPAALGEAQPTKSLEENKSLKEQKKLNDLCFLKRLLQEIKTCWNKILMGTKEH
- expression of MDA-7 mRNA and protein (MDA-7 expression in PBMC): stimulated
